Measured values reported in article PMC8900595 (Journal of medicinal chemistry, 2021).

Columns and labels:
A/WSN/33 = experiment: microbe, parasite or virus in culture; assay type: cell-based, influenza A virus
A549 cells = details: human
WSN-PB2-Nanoluc virus = assay type: cell-based, influenza A virus

Compound | selectivity index (A/WSN/33) | Cytotoxicity (MTT) CC10 (A549 cells) [µM] | antiviral activity as described in SAR text (A/WSN/33) | further results
CCN(c1ccc(Cl)cc1F)S(=O)(=O)c1cc(Cl)ccc1Cl [compound 20, 2,5-Dichloro-N-(4-chloro-2-fluorophenyl)-N-ethylbenzenesulfonamide] | >33 | >5 | – | –
CCN(c1ccccc1)S(=O)(=O)c1cc(Cl)ccc1Cl [compound 7, 2,5-Dichloro-N-ethyl-N-phenylbenzenesulfonamide] | >6 | >5 | – | loss of activity on removing the 2-methyl group (A/WSN/33): greater than 10 ×
C=CCN(c1ccccc1C)S(=O)(=O)c1cc(Cl)ccc1Cl [compound 4, N-Allyl-2,5-dichloro-N-(o-tolyl)benzenesulfonamide] | >42 | >5 | – | –
Cc1ccccc1N(C)S(=O)(=O)c1cc(Cl)ccc1Cl [compound 3, 2,5-Dichloro-N-methyl-N-(o-tolyl)benzenesulfonamide] | – | >5 | substantially diminished activity | –
CCN(c1ccc(CCN)cc1)S(=O)(=O)c1cc(Cl)ccc1Cl [compound 27, N-(4-(2-Aminoethyl)phenyl)-2,5-dichloro-N-ethylbenzenesulfonamide] | – | >25 | – | –
COCCN(c1ccc(Cl)cc1C)S(=O)(=O)c1cc(Cl)ccc1Cl [compound 16, 2,5-Dichloro-N-(4-chloro-2-methylphenyl)-N-(2-methoxyethyl)-benzenesulfonamide] | >4 | >5 | lower activity | –
CCN(c1ccc(F)cc1F)S(=O)(=O)c1ccccc1Cl [compound 31, 2-Chloro-N-(2,4-difluorophenyl)-N-ethylbenzenesulfonamide] | – | – | inactive | –
C#CCN(c1cccc(N=[N+]=[N-])c1)S(=O)(=O)c1cc(Cl)ccc1Cl [compound 54, N-(3-Azidophenyl)-2,5-dichloro-N-(prop-2-yn-1-yl)benzenesulfonamide] | – | – | – | activity under the assay conditions (WSN-PB2-Nanoluc virus): retained robust activity
CCN(c1ccccc1C#N)S(=O)(=O)c1cc(Cl)ccc1Cl [compound 9, 2,5-Dichloro-N-(2-cyanophenyl)-N-ethylbenzenesulfonamide] | >29 | >5 | less effective | –
CCN(c1ccc(CC(=O)O)cc1)S(=O)(=O)c1cc(Cl)ccc1Cl [compound 25, 2-(4-((2,5-Dichloro-N-ethylphenyl)sulfonamido)phenyl)acetic Acid] | – | >25 | – | –
CCN(c1ccc(F)cc1F)S(=O)(=O)c1cccc(Cl)c1 [compound 32, 3-Chloro-N-(2,4-difluorophenyl)-N-ethylbenzenesulfonamide] | – | – | maintained activity | lower level of activity than 21 (A/WSN/33): 10 fold
Cc1ccccc1N(C(C)C)S(=O)(=O)c1cc(Cl)ccc1Cl [compound 6, 2,5-Dichloro-N-isopropyl-N-(o-tolyl)benzenesulfonamide] | >3 | >5 | – | loss of activity compared to compound 1 (A/WSN/33): greater than 10 fold
C#CCN(c1ccccc1C)S(=O)(=O)c1cc(Cl)ccc1Cl [compound 5, 2,5-Dichloro-N-(prop-2-yn-1-yl)-N-(o-tolyl)benzenesulfonamide] | >13 | >5 | – | –
Cc1cc(Cl)ccc1N(CCF)S(=O)(=O)c1cc(Cl)ccc1Cl [compound 18, 2,5-Dichloro-N-(4-chloro-2-methylphenyl)-N-(2-fluoroethyl)-benzenesulfonamide] | >9 | >5 | lower activity | IC50 (A/WSN/33; Influenza A virus, WSN, A549, 24 h, read-out: viral replication IC50): 0.55 µM
2,5-Dichloro-N-(4-chloro-2-methylphenyl)benzamide [compound 51] | – | – | – | activity under the assay conditions (WSN-PB2-Nanoluc virus): inactive
CCOC(=O)Cc1ccc(N(CC)S(=O)(=O)c2cc(Cl)ccc2Cl)cc1 [compound 24, Ethyl 2-(4-((2,5-Dichloro-N-ethylphenyl)sulfonamido)phenyl)-acetate] | >63 | >5 | – | –
CCN(c1ccc(CCNC(C)=O)cc1)S(=O)(=O)c1cc(Cl)ccc1Cl [compound 28, N-(4-((2,5-Dichloro-N-ethylphenyl)sulfonamido)phenethyl)-acetamide] | – | >25 | – | –
CCN(c1ccc(F)cc1F)S(=O)(=O)c1ccc(Cl)cc1Cl [compound 33, 2,4-Dichloro-N-(2,4-difluorophenyl)-N-ethylbenzenesulfonamide] | – | – | inactive | –
Cc1cc(Cl)ccc1N(CC1CC1)S(=O)(=O)c1cc(Cl)ccc1Cl [compound 15, 2,5-Dichloro-N-(4-chloro-2-methylphenyl)-N-(cyclopropylmethyl)benzenesulfonamide] | >10 | >5 | – | less active than the N-ethyl version (12) (A/WSN/33): greater than 10 ×

Compound | selectivity index (A/WSN/33) | Cytotoxicity (MTT) CC10 (A549 cells) [µM] | antiviral activity as described in SAR text (A/WSN/33) | further results
CCN(c1ccc(CC(=O)N2CCN(C)CC2)cc1)S(=O)(=O)c1cc(Cl)ccc1Cl [compound 29, 2,5-Dichloro-N-ethyl-N-(4-(2-(4-methylpiperazin-1-yl)-2-oxoethyl)phenyl)benzenesulfonamide] | – | >25 | – | –
CCN(c1ccc(C)cc1)S(=O)(=O)c1cc(Cl)ccc1Cl [compound 11, 2,5-Dichloro-N-ethyl-N-(p-tolyl)benzenesulfonamide] | >298 | >25 | well tolerated | –
CCN(c1ccc(F)cc1F)S(=O)(=O)c1ccc(Cl)c(Cl)c1 [compound 36, 3,4-Dichloro-N-(2,4-difluorophenyl)-N-ethylbenzenesulfonamide] | – | – | inactive | –
O=S(=O)(c1cc(Cl)ccc1Cl)N1CCCc2cc(Cl)ccc21 [compound 50, 6-Chloro-1-((2,5-dichlorophenyl)sulfonyl)-1,2,3,4-tetrahydroquinoline] | – | – | – | activity under the assay conditions (WSN-PB2-Nanoluc virus): inactive
CCN(c1ccc(CCO)cc1)S(=O)(=O)c1cc(Cl)ccc1Cl [compound 26, 2,5-Dichloro-N-ethyl-N-(4-(2-hydroxyethyl)phenyl)-benzenesulfonamide] | – | >25 | – | –
Cc1cc(Cl)ccc1N(C(F)F)S(=O)(=O)c1cc(Cl)ccc1Cl [compound 19, 2,5-Dichloro-N-(4-chloro-2-methylphenyl)-N-(difluoromethyl)benzenesulfonamide] | >4 | >5 | lower activity | –
C#CCCC1(CCOC(=O)Cc2ccc(N(CC)S(=O)(=O)c3cc(Cl)ccc3Cl)cc2)N=N1 [compound 53, 2-(3-(But-3-yn-1-yl)-3H-diazirin-3-yl)ethyl 2-(4-((2,5-Dichloro-Nethylphenyl)sulfonamido)phenyl)acetate] | – | – | – | activity under the assay conditions (WSN-PB2-Nanoluc virus): not active
C=CCN(c1ccc(Cl)cc1C)S(=O)(=O)c1cc(Cl)ccc1Cl [compound 13, N-Allyl-2,5-dichloro-N-(4-chloro-2-methylphenyl)benzenesulfonamide] | >135 | >5 | generally more potent | –
CCN(c1ccc(F)cc1F)S(=O)(=O)c1ccccc1 [compound 30, N-(2,4-Difluorophenyl)-N-ethylbenzenesulfonamide] | – | – | inactive | –
Cc1cc(Cl)ccc1N(CCO)S(=O)(=O)c1cc(Cl)ccc1Cl [compound 17, 2,5-Dichloro-N-(4-chloro-2-methylphenyl)-N-(2-hydroxyethyl)benzenesulfonamide] | – | >5 | lower activity | –
CCN(c1c(F)cc(Cl)cc1F)S(=O)(=O)c1cc(Cl)ccc1Cl [compound 23, 2,5-Dichloro-N-(4-chloro-2,6-difluorophenyl)-N-ethylbenzenesulfonamide] | >12 | – | less active | –
Cc1ccccc1NS(=O)(=O)c1cc(Cl)ccc1Cl [compound 2, 2,5-Dichloro-N-(o-tolyl)benzenesulfonamide] | – | >5 | substantially diminished activity | –
CCN(c1c(C)cc(Cl)cc1Cl)S(=O)(=O)c1cc(Cl)ccc1Cl [compound 22, 2,5-Dichloro-N-(2,4-dichloro-6-methylphenyl)-N-ethylbenzenesulfonamide] | >13 | >5 | less active | –
CCN(c1ccc(F)cc1)S(=O)(=O)c1cc(Cl)ccc1Cl [compound 10] | >74 | >5 | similarly potent | –
C#CCN(c1ccc(Cl)cc1C)S(=O)(=O)c1cc(Cl)ccc1Cl [compound 14, 2,5-Dichloro-N-(4-chloro-2-methylphenyl)-N-(prop-2-yn-1-yl)benzenesulfonamide] | >42 | >5 | generally more potent | –
CCN(c1ccccc1Cl)S(=O)(=O)c1cc(Cl)ccc1Cl [compound 8, 2,5-Dichloro-N-(2-chlorophenyl)-N-ethylbenzenesulfonamide] | >33 | >5 | less effective | –
CCN(c1ccc(F)cc1F)S(=O)(=O)c1c(Cl)cccc1Cl [compound 35, 2,6-Dichloro-N-(2,4-difluorophenyl)-N-ethylbenzenesulfonamide] | – | – | inactive | –
CCN(c1ccc(F)cc1F)S(=O)(=O)c1cccc(Cl)c1Cl [compound 37, 2,3-Dichloro-N-(2,4-difluorophenyl)-N-ethylbenzenesulfonamide] | – | – | inactive | –
CCN(c1ccc(F)cc1F)S(=O)(=O)c1cc(Cl)cc(Cl)c1 [compound 34, 3,5-Dichloro-N-(2,4-difluorophenyl)-N-ethylbenzenesulfonamide] | – | – | – | less active than 1–55 (A/WSN/33): > 10 fold
